{"source": "patent EP0551200A1", "about": "“Protein phosphatase inhibitors for use in therapy” (priority 1992, dated 1993)", "key": {"[1]": {"test_system": "Egr-1 mRNA", "assay": "Nuclear run-on analysis of transcription in Balb/c 3T3 cells", "assay_type": "cell-based, mouse", "details": "0.5 µM", "protocol": "Nuclei were isolated from quiescent (0 h) and okadaic acid-treated (0.5 µM) Balb/c 3T3 cells under conditions described in the \"Experimental Procedures\" of Example 2. Nylon matrix containing the indicated plasmids were hybridized with the in vitro transcribed RNA and then autoradiographed. Control cells were also treated with DMEM containing […] of DMSO and RNA from these cells were also transcribed and hybridized to the various plasmids indicated.\nCell Cultures and Reagents. Human diploid foreskin fibroblasts were a gift from Dr J Vilcek (New York University, New York). The cells were grown in MEM supplemented with 10% fetal bovine serum (Hyclone, Logan, UT, US), Mouse Balb/c 3T3 cells were purchased from the American Type Culture Collection and grown in Dulbecco's MEM (DMEM) supplemented with 10% fetal bovine serum. Okadaic acid, calyculin A, H7, and HA1004 were purchased from Biomol Research Laboratories (Plymouth Meeting, PA, US). TPA, puromycin and dBt-cAMP were purchased from Sigma (St Louis, MO, US) 1 mM stock solutions of okadaic acid or calyculin A were solubilized in DMSO. [³²P]orthophosphate and other radioactive chemicals were purchased from Du Pont-New England Nuclear (Boston, MA). Preparation of RNA and Northern Analysis. Balb/c 3T3 cells were grown to near confluency in DMEM supplemented with 10% fetal calf serum. The cells were then maintained in DMEM without serum for 48 h followed by treatment with the indicated agonists for the times indicated. Similarly human fibroblasts were maintained in MEM supplemented with 10% fetal bovine serum. Nearly confluent human fibroblasts were maintained for 2 days in MEM supplemented with 0.25% fetal bovine serum before treatment with agonists. The cells were harvested and total cytoplasmic RNA was isolated and subjected to Northern analysis as previously described (Chomczynski et al, Anal. Biochem. 162, 156-159, 1987). The blots were autoradiographed and quantitated with the aid of the Visage 2000 Image System (BioImage Products, Ann Arbor, MI, US). Nuclear Run-on Analysis of Transcription. […]"}, "[2]": {"test_system": "human fibroblasts", "assay": "Early protein phosphorylation changes in 32P-labeled cells, two-dimensional gel electrophoresis with computerized densitometry", "assay_type": "cell-based", "experimental": "The cells were then subjected to analysis by high resolution two-dimensional gel electrophoresis combined with computerized imaging as previously described (Guy et al, J. Biol. Chem. 266, 14343-14352, 1991).\nRadiolabeling of Cells and Cell Lysis - For labeling with [³²P]orthophosphate cells were plated onto 90 mm plastic tissue culture dishes and incubated for 3 days for the cells to become confluent. Immediately before labeling, the media was removed and the cells were washed twice with 5 ml of phosphate- and serum-free media (150 mM NaCl, 5 mM MgCl₂, 5 mM KCl, 1.6 mM CaCl₂, 0.5% glucose, 10 mM Tris, 0.1% bovine serum albumin, pH 7.4) before the addition of 1 mCi/ml of [³²P]orthophosphate in 3 ml of the same media to each plate. The plates were incubated at 37°C in a humidified CO₂ incubator for 2 h before the addition of the okadaic acid or other agonists at the concentrations and for the times indicated in the figures and table. The agonists were reconstituted in aqueous buffered solution or in dimethyl sulfoxide. […] At the completion of labeling the media was removed, and the cells were rapidly washed twice with 5 ml of ice-cold phosphate-buffered saline before being solubilised in 200 µl of cytosol extraction buffer (10mM Tris-HCl, 50 mM EDTA, 50 mM NaCl, 30 mM sodium pyrophosphate, 50 mM NaF, 100µM Na₃VO₄, 0.65% Nonidet P-40, 2 mM leupeptin, 2mM phenylmethylsulfonyl fluoride, pH 7.4). The lysate was collected and centrifuged for 5 min at 14,000 rpm. The pellet containing the nuclear fraction (including the cytoskeletal-membrane fractions) was separated from the cytosolic fraction. Both fractions were lyophilized.\nTwo-dimensional Gel Electrophoresis - The lyophilized fractions (each of approximately 12 µg) were subjected to isoelectric focusing for 18,000 V/h with pH 3-10 ampholytes using the Millipore Investigator two-dimensional electrophoresis system (Millipore). Following this, the first-dimension gel was extruded and equilibrated in SDS buffer for 2 min before being loaded onto the second dimension 12.5% SDS-polyacrylamide gel. The gel was fixed, dried and ³²P-labeled polypeptides were located by autoradiography by using intensifying screens at -80°C. For measurement of the pH profile, carbamylated protein standards (Pharmacia LKB Biotechnology Inc.) were co-run on duplicate gels and related to proteins of known pI on previously calibrated samples. Molecular weight marker proteins from Sigma were detected by Coomassie Blue staining and marked on the autoradiogram. ³²P-Labeled 27 hsp complex prepared from human fibroblasts heat shocked at 43°C for 30 min was also used as a marker.\nQuantitative Determination of Protein Phosphorylation - The amount of protein phosphorylation on autoradiographs derived from cytosolic membrane or antibody-precipitated preparations containing equal amounts of protein were analyzed by computerized densitometry using a Visage 2000 Image analysis system (BioImage Products, Ann Arbor, MI, US).\nThe ³²P-labeled protein spots are resolved and detected by autoradiography of the high definition two-dimensional gel electrophoresis of cytosolic extracts prepared from ³²P-labeled human fibroblasts. The radioactive spots (each representing one or more phosphoproteins) are analyzed by computerized densitometry. Each spot is arbitrarily assigned a number. […]"}, "[3]": {"test_system": "human fibroblasts", "assay": "Total cellular protein synthesis in human fibroblasts", "assay_type": "cell-based", "details": "data not shown", "protocol": "Quiescent human fibroblasts were stimulated with MEM containing 0.5 µM okadaic acid in the presence or absence of cycloheximide (10 µg/ml) for the times indicated in Fig. 11. […] Treatment of cells with cycloheximide enhanced the induction of Egr-1 mRNA by okadaic acid at 1.5 and 3 h (Fig. 11). Similarly puromycin, like cycloheximide, also \"superinduces\" the induction of the Egr-1 mRNA by okadaic acid (data not shown). […] However, in view that protein phosphatase 1 (PP1) and protein phosphatase 2A (PP2A) regulate enzymes associated with cellular protein synthesis (Cohen, Annu. Rev. Biochem. 58, 453-508, 1989) the effect of okadaic acid on protein synthesis in mouse and human fibroblasts was also measured. […] By then the Egr-1 mRNA message was already induced. A corollary to this is a comparison of the amount of ³⁵S-methionine labelled Egr-1 protein immunoprecipitated by R5232 antibodies from protein phosphatase inhibitor-treated and control cells. […] Thus, the induction of the Egr-1 gene by phosphatase inhibitors is unlikely to be mediated by their late inhibitory effects on cellular protein synthesis."}, "[4]": {"details": "cytosolic fraction, first 15 min of ligand treatment"}}, "data": [{"smiles": "C=C1[C@@H](O)[C@@H]2O[C@]3(CC[C@H](/C=C/[C@@H](C)[C@@H]4CC(C)=C[C@@]5(O[C@H](C[C@@](C)(O)C(=O)O)CC[C@H]5O)O4)O3)CC[C@H]2O[C@@H]1[C@@H](O)C[C@H](C)[C@H]1O[C@@]2(CCCCO2)CC[C@H]1C", "note": "[okadaic acid]", "values": [{"measurement": "time at which a trace of newly transcribed Egr-1 mRNA was detectable", "setting": "[1]", "result": 0.5, "unit": "h"}, {"measurement": "time by which significant amounts of Egr-1 mRNA were transcribed", "setting": "[1]", "result": "≤ 1", "unit": "h"}, {"measurement": "time of maximum transcription of Egr-1 mRNA", "setting": "[1]", "result": 4, "unit": "h"}, {"measurement": "number of proteins dephosphorylated", "setting": "[2]; [4]", "result": "six"}, {"measurement": "number of proteins with early phosphorylation changes", "setting": "[2]; [4]", "result": "about 60 proteins"}, {"measurement": "identity of changes in early protein phosphorylation with those induced by TNF", "setting": "[2]; cytosolic fraction, okadaic acid, 15 min, TNF 50 units/ml", "result": "about 95%"}, {"measurement": "changes in protein phosphorylation compared with TNF treatment (in words)", "setting": "[2]; nuclear/cytoskeletal membrane fraction, 46-50 proteins, 15 min", "result": "almost identical changes"}, {"measurement": "effect on total cellular protein synthesis (in words)", "setting": "[3]; 0.5 µM, first 2 h", "result": "little measurable effect"}, {"measurement": "inhibition at 0.5 µM", "setting": "[3]; Homo sapiens, Fibroblast, at 4 h", "result": "≤ 50", "unit": "%"}]}]}
